Experimental data reported in ChEMBL document CHEMBL4376834, “Discovery of 4H-Chromen-4-one Derivatives as a New Class of Selective Rho Kinase (ROCK) Inhibitors, which Showed Potent Activity in ex Vivo Diabetic Retinopathy Models” (J Med Chem, 2019).
pIC50: −log10 of the molar value.

Experiments:
Tribbles homolog 2 = Tribbles homolog 2 (Homo sapiens, UniProt Q92519); test: Inhibition of recombinant full-length human TRB2 using RRRFRPASPLRGP as substrate incubated for 120 mins in presence of [gamma33P]ATP by radiometric scintillation counting analysis
Tribbles homolog 2, sequence (Q92519 whole entry): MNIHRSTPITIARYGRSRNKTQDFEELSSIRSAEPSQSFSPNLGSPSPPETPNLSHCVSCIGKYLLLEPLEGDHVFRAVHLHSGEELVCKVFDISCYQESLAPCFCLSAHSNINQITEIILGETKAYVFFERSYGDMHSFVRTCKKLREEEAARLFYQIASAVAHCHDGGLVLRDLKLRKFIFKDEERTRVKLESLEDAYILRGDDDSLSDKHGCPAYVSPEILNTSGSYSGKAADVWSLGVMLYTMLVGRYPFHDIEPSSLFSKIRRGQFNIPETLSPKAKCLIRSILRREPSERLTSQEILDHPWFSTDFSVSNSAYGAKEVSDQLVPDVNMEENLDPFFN

[1] = biological target: Calcium/calmodulin-dependent protein kinase type II subunit alpha (Homo sapiens, UniProt Q9UQM7); test: Inhibition of recombinant full length human CaMK2alpha using KKLNRTLSFAEPG as substrate incubated for 40 mins in presence of [gamma-33ATP] by radiometric scintillation counting analysis
[2] = biological target: 5'-AMP-activated protein kinase catalytic subunit alpha-2 (Homo sapiens, UniProt P54646); test: Inhibition of human full length AMPKalpha2 recombinant using AMARAASAAALAR as substrate incubated for 40 mins in presence of [gamma-33ATP] by radiometric scintillation counting analysis
5'-AMP-activated protein kinase catalytic subunit alpha-2, sequence (P54646 whole entry): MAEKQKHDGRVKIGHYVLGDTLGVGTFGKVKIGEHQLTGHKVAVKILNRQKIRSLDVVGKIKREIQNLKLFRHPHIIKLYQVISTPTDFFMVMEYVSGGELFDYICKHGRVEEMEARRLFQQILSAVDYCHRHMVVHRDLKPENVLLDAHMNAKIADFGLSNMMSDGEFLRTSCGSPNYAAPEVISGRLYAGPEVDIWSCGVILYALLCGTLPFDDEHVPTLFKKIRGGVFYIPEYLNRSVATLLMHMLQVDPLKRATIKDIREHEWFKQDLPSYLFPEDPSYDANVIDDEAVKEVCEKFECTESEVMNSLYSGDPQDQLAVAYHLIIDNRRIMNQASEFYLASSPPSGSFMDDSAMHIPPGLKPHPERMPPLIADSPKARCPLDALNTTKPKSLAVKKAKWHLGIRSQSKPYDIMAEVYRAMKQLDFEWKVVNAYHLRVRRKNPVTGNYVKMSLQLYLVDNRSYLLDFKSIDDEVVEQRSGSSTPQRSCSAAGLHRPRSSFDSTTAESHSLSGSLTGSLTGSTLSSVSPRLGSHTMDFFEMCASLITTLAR

[3] = biological target: Mitogen-activated protein kinase 1 (Homo sapiens, UniProt P28482); test: Inhibition of recombinant full length human MAPK1 using myelin basic protein as substrate incubated for 40 mins in presence of [gamma-33ATP by radiometric scintillation counting analysis
Mitogen-activated protein kinase 1, sequence (P28482 whole entry): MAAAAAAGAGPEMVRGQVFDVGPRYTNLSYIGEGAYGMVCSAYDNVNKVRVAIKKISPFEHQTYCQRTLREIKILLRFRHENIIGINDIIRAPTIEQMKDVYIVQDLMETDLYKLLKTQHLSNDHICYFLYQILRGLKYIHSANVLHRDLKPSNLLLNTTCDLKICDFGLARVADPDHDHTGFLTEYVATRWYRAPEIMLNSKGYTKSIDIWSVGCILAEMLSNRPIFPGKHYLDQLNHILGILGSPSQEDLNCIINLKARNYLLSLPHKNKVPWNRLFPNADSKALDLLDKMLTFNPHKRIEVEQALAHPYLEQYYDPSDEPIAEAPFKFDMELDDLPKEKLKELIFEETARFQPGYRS

[4] = biological target: Tyrosine-protein kinase FRK (Homo sapiens, UniProt P42685); test: Inhibition of recombinant human PTK5 (218 to end residues) using GGEEEEYFELVKK as substrate incubated for 40 mins in presence of [gamma33P]ATP by radiometric scintillation counting analysis
Angiopoietin-1 receptor = Angiopoietin-1 receptor (Homo sapiens, UniProt Q02763, Q939H/Q940H); test: Inhibition of recombinant human TIE2 Q939H/Q940H double mutant (771 to end residues) using poly(Glu, Tyr) 4:1 as substrate incubated for 40 mins in presence of [gamma33P]ATP by radiometric scintillation counting analysis
Angiopoietin-1 receptor, sequence (Q02763 23-1124 Q939H/Q940H limits assumed): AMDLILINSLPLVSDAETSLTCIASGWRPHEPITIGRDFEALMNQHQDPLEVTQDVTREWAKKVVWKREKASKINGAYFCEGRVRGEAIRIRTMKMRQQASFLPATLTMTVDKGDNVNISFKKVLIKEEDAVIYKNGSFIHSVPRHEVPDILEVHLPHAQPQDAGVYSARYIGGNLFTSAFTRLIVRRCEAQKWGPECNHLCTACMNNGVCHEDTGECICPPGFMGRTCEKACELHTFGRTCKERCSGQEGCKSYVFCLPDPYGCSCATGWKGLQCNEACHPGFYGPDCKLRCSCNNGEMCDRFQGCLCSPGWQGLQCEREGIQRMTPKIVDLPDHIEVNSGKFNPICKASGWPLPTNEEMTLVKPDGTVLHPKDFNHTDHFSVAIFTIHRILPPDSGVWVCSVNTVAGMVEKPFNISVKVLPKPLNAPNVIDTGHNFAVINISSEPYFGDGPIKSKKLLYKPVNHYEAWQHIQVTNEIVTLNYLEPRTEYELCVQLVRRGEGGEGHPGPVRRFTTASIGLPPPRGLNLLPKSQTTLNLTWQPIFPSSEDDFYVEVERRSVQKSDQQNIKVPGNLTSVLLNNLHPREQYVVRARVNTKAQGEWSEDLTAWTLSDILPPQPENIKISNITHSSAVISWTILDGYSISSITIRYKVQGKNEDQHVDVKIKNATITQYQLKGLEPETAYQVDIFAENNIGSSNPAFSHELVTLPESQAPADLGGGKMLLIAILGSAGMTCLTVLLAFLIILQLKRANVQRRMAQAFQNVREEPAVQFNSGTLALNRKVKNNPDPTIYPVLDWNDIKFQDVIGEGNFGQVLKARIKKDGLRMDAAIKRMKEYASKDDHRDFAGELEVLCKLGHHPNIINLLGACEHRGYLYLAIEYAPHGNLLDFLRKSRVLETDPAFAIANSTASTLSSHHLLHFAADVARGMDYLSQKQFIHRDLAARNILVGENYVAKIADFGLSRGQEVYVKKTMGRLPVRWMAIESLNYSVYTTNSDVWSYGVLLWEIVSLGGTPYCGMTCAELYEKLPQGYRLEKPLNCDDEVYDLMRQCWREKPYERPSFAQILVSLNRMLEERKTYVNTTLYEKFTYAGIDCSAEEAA

[5] = biological target: Cyclin-dependent kinase 14/Cyclin-Y (Homo sapiens, UniProt O94921); test: Inhibition of recombinant full length human CDK14/cyclinY in presence of [gamma-33ATP] by radiometric scintillation counting analysis; type: protein-complex assay
[6] = biological target: Leucine-rich repeat serine/threonine-protein kinase 2 (Homo sapiens, UniProt Q5S007); test: Inhibition of recombinant human LRRK2 (970 to end residues) using RLGRDKYKTLRQI as substrate after 40 mins in presence of [gamma-33ATP] by radiometric scintillation counting analysis
[7] = biological target: Tyrosine-protein kinase Blk (Homo sapiens, UniProt P51451); test: Inhibition of human full-length recombinant BLK M287V mutant using poly(Glu, Tyr) 4:1 as substrate measured after 40 mins in presence of [gamma33P]ATP by radiometric scintillation counting analysis
Tyrosine-protein kinase Blk, sequence (P51451 whole entry): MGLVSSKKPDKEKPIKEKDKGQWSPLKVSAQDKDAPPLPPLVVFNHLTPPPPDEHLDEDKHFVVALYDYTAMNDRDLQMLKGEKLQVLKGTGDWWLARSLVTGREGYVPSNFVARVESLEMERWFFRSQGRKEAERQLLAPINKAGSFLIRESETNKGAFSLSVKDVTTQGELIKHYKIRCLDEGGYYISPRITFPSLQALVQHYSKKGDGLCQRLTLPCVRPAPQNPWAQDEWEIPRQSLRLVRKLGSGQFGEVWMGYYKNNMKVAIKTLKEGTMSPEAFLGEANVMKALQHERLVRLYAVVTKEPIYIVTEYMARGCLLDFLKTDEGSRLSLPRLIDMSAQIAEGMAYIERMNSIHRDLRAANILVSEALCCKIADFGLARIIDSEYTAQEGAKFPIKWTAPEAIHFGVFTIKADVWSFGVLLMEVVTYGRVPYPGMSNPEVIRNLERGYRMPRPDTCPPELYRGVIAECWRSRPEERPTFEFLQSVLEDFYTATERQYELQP

[8] = Inhibition of recombinant human FLT4 V1128L/H1146R double mutant (800 to end residues) using GGEEEEYFELVKK as substrate after 40 mins in presence of [gamma-33ATP] by radiometric scintillation counting analysis
[9] = biological target: Serine/threonine-protein kinase N2 (Homo sapiens, UniProt Q16513); test: Inhibition of recombinant human PRK2 (501 to end residues) using AKRRRLSSLRA as substrate incubated for 40 mins in presence of [gamma33P]ATP by radiometric scintillation counting analysis
[10] = biological target: Serine/threonine-protein kinase haspin (Homo sapiens, UniProt Q8TF76); test: Inhibition of human recombinant Haspin (471 to end residues) using RARTLSFAEPG as substrate after 40 mins by [gamma-33ATP] radiometric assay
[11] = biological target: Bone morphogenetic protein receptor type-2 (Homo sapiens, UniProt Q13873); test: Inhibition of human recombinant BMPR2 (172 to 734 residues) using myelin basic protein as substrate incubated for 120 mins in presence of [gamma-33ATP] by radiometric scintillation counting analysis
Bone morphogenetic protein receptor type-2, sequence (Q13873 whole entry, the tested form may be a part): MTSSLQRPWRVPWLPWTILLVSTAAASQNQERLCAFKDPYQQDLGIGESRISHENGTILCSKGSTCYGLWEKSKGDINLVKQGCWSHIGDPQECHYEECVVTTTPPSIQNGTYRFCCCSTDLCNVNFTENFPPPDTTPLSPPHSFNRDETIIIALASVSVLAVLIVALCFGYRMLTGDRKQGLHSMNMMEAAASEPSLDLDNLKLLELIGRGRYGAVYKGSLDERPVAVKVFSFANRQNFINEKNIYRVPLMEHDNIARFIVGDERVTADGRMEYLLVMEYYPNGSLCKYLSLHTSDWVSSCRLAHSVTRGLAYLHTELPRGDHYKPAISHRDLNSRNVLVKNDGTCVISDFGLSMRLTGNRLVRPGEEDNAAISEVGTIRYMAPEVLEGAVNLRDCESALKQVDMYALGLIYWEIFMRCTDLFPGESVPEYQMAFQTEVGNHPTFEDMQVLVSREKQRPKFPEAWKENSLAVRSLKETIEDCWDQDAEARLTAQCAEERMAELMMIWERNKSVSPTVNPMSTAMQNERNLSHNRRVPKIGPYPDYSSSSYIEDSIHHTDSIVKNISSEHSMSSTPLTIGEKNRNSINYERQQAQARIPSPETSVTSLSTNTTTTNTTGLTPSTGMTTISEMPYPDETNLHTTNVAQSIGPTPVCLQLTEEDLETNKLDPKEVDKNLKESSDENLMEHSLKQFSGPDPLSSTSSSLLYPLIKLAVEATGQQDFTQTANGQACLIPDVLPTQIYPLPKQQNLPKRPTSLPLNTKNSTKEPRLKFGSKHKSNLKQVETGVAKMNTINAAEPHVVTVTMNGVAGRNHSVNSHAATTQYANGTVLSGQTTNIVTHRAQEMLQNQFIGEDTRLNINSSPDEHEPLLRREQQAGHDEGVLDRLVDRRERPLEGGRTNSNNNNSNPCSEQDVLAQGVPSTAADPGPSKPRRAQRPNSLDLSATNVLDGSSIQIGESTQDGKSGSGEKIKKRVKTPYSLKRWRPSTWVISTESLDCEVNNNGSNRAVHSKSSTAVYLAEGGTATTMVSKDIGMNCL

[12] = Intrinsic clearance in human liver microsomes measured upto 45 mins in presence of NADPH by LC-MS analysis; type: ADME, Microsome; settings: read-out: CLH
[13] = biological target: Insulin receptor-related protein (Homo sapiens, UniProt P14616); test: Inhibition of human recombinant IRR (943 to 1266 residues) using myelin basic protein as substrate after 40 mins by [gamma-33ATP] by radiometric scintillation counting analysis
[14] = biological target: Serine/threonine-protein kinase Nek4 (Homo sapiens, UniProt P51957, P225A); test: Inhibition of recombinant full-length human NEK4 P225A mutant using myelin basic protein as substrate measured after 40 mins in presence of [gamma33P]ATP by radiometric scintillation counting analysis
CDK7/Cyclin H/MNAT1 = CDK7/Cyclin H/MNAT1 (Homo sapiens, UniProt P50613); test: Inhibition of recombinant full length human CDK7/cyclinH/MAT1 using peptide substrate incubated for 40 mins in presence of [gamma-33ATP] by radiometric scintillation counting analysis; type: protein-complex assay
[15] = biological target: Insulin-like growth factor 1 receptor (Homo sapiens, UniProt P08069); test: Inhibition of human recombinant IGF1R (959 to end residues) using KKKSPGEYVNIEF as substrate after 40 mins by [gamma-33ATP] by radiometric scintillation counting analysis
[16] = biological target: Cyclin-dependent kinase-like 4 (Homo sapiens, UniProt Q5MAI5); test: Inhibition of recombinant full length human CDKL4 in presence of [gamma-33ATP] by radiometric scintillation counting analysis
[17] = biological target: Serine/threonine-protein kinase Sgk2 (Homo sapiens, UniProt Q9HBY8, S416D); test: Inhibition of recombinant human SGK2 S416D mutant (54 to end residues) using GRPRTSSFAEGKK as substrate incubated for 40 mins in presence of [gamma33P]ATP by radiometric scintillation counting analysis
[18] = biological target: Tyrosine-protein kinase Lyn (Homo sapiens, UniProt P07948); test: Inhibition of recombinant full length human Lyn using poly(Glu, Tyr) 4:1 as substrate after 40 mins in presence of [gamma-33ATP] by radiometric scintillation counting analysis
[19] = biological target: Mast/stem cell growth factor receptor Kit (Homo sapiens, UniProt P10721); test: Inhibition of recombinant human C-Kit (544 to end residues) using poly (Glu,Tyr) 4:1 as substrate in presence of [gamma-33ATP] by radiometric scintillation counting analysis
[20] = biological target: Dual specificity tyrosine-phosphorylation-regulated kinase 1B (Homo sapiens, UniProt Q9Y463); test: Inhibition of recombinant full length human DYRK1B using RRRFRPASPLRGPP as substrate after 40 mins in presence of [gamma-33ATP] by radiometric scintillation counting analysis
Dual specificity tyrosine-phosphorylation-regulated kinase 1B, sequence (Q9Y463 whole entry): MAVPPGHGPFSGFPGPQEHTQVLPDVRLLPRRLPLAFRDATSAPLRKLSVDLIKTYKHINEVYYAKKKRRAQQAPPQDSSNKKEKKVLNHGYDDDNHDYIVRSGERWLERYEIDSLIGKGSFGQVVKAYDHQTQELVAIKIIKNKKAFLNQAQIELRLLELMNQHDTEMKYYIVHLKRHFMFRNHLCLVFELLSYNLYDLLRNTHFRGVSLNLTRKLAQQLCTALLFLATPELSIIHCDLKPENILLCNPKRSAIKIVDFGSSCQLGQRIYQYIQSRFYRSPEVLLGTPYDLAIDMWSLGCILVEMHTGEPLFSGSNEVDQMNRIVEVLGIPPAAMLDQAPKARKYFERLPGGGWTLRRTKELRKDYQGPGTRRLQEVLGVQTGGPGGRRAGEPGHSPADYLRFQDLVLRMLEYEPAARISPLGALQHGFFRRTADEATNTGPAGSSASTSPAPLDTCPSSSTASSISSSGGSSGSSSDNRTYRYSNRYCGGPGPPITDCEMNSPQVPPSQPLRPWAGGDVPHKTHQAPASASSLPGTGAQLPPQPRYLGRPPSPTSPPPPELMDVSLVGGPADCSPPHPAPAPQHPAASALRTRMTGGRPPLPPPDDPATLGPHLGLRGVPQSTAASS

[21] = biological target: Serine/threonine-protein kinase NIM1 (Homo sapiens, UniProt Q8IY84); test: Inhibition of recombinant full length human NIM1 using KKKVSRSGLYRSP as substrate measured after 40 mins in presence of [gamma33P]ATP by radiometric scintillation counting analysis
[22] = biological target: Serine/threonine-protein kinase 17B (Homo sapiens, UniProt O94768); test: Inhibition of recombinant full length human DRAK2 using KKRPQRRYSNVF as substrate at 120 mins in presence of [gamma-33ATP] by radiometric scintillation counting analysis
Serine/threonine-protein kinase 17B, sequence (O94768 whole entry): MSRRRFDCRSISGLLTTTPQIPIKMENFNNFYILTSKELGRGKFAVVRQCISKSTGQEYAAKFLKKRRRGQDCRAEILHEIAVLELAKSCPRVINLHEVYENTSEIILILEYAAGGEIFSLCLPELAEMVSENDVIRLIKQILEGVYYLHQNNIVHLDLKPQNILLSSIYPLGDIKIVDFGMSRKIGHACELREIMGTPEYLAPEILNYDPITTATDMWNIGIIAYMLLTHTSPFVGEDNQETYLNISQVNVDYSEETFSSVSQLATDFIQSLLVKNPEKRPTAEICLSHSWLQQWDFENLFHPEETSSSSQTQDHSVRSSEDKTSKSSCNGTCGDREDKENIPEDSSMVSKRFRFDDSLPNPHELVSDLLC

[23] = biological target: Transcription initiation factor TFIID subunit 1-like (Homo sapiens, UniProt Q8IZX4); test: Inhibition of recombinant human TAF1L (1428 to end residues) using RRRFRPASPLRGP as substrate incubated for 120 mins in presence of [gamma33P]ATP by radiometric scintillation counting analysis

SMILES: CN(C)c1ccc(C(=O)Nc2cccc(NC(=O)COc3ccc4c(=O)ccoc4c3)c2)cc1
- pIC50 (Tribbles homolog 2): < 5.00
- pIC50 [1]: < 5.00
- pIC50 [2]: < 5.00
- pIC50 [3]: < 5.00
- pIC50 [4]: < 5.00
- pIC50 (Angiopoietin-1 receptor): < 5.00
- pIC50 [5]: < 5.00
- pIC50 [6]: < 5.00
- pIC50 [7]: < 5.00
- pIC50 [8]: < 5.00
- pIC50 [9]: < 5.00
- pIC50 [10]: < 5.00
- pIC50 [11]: < 5.00
- CLint scaled [12]: 216 mL/min/kg
- pIC50 [13]: < 5.00
- pIC50 [14]: < 5.00
- pIC50 (CDK7/Cyclin H/MNAT1): < 5.00
- pIC50 [15]: < 5.00
- pIC50 [16]: < 5.00
- pIC50 [17]: < 5.00
- pIC50 [18]: < 5.00
- pIC50 [19]: < 5.00
- pIC50 [20]: < 5.00
- pIC50 [21]: < 5.00
- pIC50 [22]: < 5.00
- pIC50 [23]: < 5.00
